ChEMBL document CHEMBL5291721, “A preclinical secondary pharmacology resource illuminates target-adverse drug reaction associations of marketed drugs” (Nat Commun, 2023)

How the values were obtained:
Histamine H1 receptor = Histamine H1 receptor (Homo sapiens, UniProt P35367)
Thromboxane A2 receptor = target: T1, Thromboxane A2 receptor (Homo sapiens, UniProt P21731); type: functional, cell-based
T1 sequence (P21731 whole entry): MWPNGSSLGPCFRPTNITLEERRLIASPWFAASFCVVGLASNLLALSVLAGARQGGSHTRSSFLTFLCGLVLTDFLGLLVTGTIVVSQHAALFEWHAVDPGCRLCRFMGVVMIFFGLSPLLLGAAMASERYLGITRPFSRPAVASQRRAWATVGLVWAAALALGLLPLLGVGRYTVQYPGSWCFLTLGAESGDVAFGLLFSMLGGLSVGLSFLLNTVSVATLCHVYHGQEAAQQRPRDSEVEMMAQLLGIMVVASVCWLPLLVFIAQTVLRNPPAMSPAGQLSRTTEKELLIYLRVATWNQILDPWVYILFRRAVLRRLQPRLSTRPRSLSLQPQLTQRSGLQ

Cannabinoid receptor 1 = Cannabinoid receptor 1 (Homo sapiens, UniProt P21554)
Sequence of Cannabinoid receptor 1 (P21554 whole entry): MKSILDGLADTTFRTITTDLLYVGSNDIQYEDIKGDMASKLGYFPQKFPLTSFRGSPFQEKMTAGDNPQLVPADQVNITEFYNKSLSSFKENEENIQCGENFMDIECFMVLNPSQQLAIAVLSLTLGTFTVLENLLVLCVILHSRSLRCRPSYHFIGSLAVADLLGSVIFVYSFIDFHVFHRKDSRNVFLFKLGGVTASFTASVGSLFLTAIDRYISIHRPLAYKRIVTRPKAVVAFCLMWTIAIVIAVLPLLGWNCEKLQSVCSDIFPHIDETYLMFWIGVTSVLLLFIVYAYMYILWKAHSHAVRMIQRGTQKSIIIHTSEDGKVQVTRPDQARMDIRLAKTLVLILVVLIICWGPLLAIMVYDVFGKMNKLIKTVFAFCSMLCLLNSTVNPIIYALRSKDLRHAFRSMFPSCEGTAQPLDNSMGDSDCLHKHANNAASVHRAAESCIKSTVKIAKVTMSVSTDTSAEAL

Progesterone receptor = target: T2, Progesterone receptor (Homo sapiens, UniProt P06401)
T2 sequence (P06401 whole entry): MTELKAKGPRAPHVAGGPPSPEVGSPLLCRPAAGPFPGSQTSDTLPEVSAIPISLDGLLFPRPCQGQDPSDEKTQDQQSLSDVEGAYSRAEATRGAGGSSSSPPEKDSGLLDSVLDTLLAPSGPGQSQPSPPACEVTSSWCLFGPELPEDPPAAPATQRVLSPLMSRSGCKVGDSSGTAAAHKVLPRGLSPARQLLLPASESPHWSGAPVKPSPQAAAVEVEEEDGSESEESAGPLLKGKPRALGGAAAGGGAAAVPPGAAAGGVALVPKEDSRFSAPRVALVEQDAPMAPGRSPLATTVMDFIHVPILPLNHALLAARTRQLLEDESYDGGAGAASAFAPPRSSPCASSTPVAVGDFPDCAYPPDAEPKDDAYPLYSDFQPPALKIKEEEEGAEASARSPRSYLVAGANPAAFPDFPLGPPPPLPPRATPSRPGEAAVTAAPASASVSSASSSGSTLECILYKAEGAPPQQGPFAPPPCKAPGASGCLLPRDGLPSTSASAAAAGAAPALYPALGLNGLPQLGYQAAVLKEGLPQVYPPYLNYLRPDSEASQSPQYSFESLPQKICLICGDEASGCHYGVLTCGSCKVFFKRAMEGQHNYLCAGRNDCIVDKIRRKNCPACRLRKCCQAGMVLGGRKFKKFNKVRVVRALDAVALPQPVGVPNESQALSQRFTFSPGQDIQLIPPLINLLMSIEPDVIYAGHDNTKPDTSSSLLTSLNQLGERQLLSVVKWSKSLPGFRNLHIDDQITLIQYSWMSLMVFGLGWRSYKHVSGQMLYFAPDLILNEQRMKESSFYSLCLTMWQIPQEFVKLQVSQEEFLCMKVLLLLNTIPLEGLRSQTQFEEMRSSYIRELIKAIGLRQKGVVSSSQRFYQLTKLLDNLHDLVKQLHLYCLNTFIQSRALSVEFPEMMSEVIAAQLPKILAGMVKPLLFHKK

[1] = target: Synaptic vesicular amine transporter (Rattus norvegicus, UniProt Q01827); type: functional
Sequence of Synaptic vesicular amine transporter (Q01827 whole entry): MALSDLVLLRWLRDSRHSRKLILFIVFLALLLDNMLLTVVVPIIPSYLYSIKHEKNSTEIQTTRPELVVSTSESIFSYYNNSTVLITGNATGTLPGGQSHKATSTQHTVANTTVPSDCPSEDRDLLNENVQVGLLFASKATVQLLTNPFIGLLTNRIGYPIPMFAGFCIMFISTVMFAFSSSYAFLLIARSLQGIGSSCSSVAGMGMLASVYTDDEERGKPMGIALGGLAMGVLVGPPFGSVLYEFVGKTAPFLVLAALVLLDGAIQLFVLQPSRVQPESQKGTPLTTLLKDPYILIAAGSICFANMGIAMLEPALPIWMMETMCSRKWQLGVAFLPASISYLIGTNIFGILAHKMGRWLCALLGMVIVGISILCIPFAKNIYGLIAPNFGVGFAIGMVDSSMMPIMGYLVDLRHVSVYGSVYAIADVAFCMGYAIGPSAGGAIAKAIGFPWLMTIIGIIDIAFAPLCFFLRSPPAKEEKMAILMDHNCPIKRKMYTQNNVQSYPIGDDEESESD

[2] = target: Neurotensin receptor type 1 (Homo sapiens, UniProt P30989)
Sequence of Neurotensin receptor type 1 (P30989 whole entry): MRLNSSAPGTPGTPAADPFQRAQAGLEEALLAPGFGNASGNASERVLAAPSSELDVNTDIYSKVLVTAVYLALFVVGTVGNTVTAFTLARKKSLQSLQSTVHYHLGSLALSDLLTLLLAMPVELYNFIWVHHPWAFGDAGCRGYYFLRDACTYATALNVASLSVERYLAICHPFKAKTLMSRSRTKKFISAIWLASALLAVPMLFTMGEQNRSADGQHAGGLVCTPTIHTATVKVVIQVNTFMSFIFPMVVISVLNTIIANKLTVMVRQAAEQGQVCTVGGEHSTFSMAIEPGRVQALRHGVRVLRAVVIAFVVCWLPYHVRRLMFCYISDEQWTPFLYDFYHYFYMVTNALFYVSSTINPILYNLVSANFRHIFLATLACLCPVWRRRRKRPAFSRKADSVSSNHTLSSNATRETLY

Estrogen receptor beta = Estrogen receptor beta (Homo sapiens, UniProt Q92731)
Sequence of Estrogen receptor beta (Q92731 whole entry): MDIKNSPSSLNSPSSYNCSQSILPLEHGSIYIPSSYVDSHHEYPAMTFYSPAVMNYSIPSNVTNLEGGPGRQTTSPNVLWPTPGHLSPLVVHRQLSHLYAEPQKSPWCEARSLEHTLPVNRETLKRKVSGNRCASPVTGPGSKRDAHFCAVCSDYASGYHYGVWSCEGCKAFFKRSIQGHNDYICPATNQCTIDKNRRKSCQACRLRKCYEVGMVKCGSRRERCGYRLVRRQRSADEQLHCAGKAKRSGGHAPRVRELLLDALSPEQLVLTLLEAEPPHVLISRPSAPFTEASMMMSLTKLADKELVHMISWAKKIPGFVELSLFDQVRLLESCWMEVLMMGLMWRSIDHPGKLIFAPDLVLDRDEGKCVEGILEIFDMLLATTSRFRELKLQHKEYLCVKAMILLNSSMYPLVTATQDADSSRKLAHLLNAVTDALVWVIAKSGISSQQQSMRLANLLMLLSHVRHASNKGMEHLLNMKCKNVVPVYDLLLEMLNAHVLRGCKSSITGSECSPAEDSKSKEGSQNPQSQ

Mu-type opioid receptor = Mu-type opioid receptor (Homo sapiens, UniProt P35372); assay: biochemical; type: functional
Sequence of Mu-type opioid receptor (P35372 whole entry): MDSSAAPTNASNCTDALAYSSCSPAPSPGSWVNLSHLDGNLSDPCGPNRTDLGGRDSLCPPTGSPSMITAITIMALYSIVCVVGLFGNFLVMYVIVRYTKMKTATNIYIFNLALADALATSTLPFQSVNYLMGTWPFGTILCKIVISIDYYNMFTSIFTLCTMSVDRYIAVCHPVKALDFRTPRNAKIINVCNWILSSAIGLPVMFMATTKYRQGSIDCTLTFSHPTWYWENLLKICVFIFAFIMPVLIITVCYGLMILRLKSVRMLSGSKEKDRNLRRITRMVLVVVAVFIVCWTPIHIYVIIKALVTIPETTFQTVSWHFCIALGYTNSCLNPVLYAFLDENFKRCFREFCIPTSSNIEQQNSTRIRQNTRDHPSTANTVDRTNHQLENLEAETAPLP

Estrogen receptor = target: T3, Estrogen receptor (Homo sapiens, UniProt P03372)
T3 sequence (P03372 whole entry): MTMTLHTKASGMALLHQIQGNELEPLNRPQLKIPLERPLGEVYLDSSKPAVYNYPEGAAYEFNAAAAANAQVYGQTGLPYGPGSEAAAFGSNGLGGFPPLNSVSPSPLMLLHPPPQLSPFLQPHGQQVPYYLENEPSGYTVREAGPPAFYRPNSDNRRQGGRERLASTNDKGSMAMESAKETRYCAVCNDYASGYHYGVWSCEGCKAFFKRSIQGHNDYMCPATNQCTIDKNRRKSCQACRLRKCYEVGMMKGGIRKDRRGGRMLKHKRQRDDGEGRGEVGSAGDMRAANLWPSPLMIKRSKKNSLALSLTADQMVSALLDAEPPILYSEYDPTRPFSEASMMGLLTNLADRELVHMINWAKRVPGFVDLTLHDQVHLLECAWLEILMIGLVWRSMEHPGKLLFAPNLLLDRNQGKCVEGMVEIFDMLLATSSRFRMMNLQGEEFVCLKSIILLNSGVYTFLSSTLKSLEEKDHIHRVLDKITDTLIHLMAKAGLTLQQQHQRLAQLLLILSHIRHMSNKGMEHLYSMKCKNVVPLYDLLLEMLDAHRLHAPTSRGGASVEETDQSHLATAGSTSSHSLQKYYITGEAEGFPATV
Also: assay procedure not described here.

Sequence of Histamine H1 receptor (P35367 whole entry): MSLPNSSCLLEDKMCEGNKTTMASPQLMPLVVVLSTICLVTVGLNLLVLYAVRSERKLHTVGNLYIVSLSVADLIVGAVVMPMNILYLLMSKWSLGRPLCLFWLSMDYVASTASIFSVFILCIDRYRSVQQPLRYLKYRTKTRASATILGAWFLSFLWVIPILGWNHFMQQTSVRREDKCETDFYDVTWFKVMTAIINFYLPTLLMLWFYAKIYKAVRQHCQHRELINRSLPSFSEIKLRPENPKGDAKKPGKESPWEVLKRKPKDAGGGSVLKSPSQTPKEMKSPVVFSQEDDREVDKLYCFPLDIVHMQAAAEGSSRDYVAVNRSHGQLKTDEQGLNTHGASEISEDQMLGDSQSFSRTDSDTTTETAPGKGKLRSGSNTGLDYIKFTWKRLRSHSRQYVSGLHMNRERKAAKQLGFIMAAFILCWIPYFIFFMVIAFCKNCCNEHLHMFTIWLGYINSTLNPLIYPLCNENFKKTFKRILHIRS

Row | Compound | AC50 (Histamine H1 receptor) | AC50 (Thromboxane A2 receptor) | AC50 (Cannabinoid receptor 1) | AC50 (Progesterone receptor) | AC50 [1] | also measured
1 | CC(=N)N1CC[C@H](SC2=C(C(=O)O)N3C(=O)[C@H]([C@@H](C)O)[C@H]3C2)C1 | > 300 µM | > 300 µM |  |  |  | 
2 | CNCC[C@H](Oc1cccc2ccccc12)c1cccs1 [DULOXETINE] | 8.8 µM |  | > 10 µM | > 30 µM | 1.4 µM | 
3 | C#Cc1cccc(Nc2ncnc3cc(OCCOC)c(OCCOC)cc23)c1 [ERLOTINIB] | > 30 µM | > 30 µM |  |  |  | 
4 | C[C@H]1Oc2cc(cnc2N)-c2c(nn(C)c2C#N)CN(C)C(=O)c2ccc(F)cc21 [LORLATINIB] | > 30 µM | > 30 µM |  |  |  | 
5 | O=C1NC(=O)C(c2ccccc2)(c2ccccc2)N1 [PHENYTOIN] |  | > 30 µM | > 10 µM | > 30 µM |  | AC50 [2]: > 30 µM
6 | NC(=O)c1ncn([C@@H]2O[C@H](CO)[C@@H](O)[C@H]2O)n1 [RIBAVIRIN] |  |  | > 10 µM |  | > 30 µM | 
7 | CCCN(CCC)CCc1cccc2c1CC(=O)N2 [ROPINIROLE] | 14 µM | > 30 µM | > 10 µM | > 30 µM |  | AC50 (Estrogen receptor beta): > 30 µM; AC50 (Mu-type opioid receptor): > 30 µM; AC50 [2]: > 30 µM
8 | CCCN(CCc1cccs1)[C@H]1CCc2c(O)cccc2C1 [ROTIGOTINE] |  | > 30 µM |  |  |  | 
9 | CC(C)N(CCCCOCC(=O)NS(C)(=O)=O)c1cnc(-c2ccccc2)c(-c2ccccc2)n1 [SELEXIPAG] | > 30 µM |  |  |  | > 30 µM | AC50 (Estrogen receptor): > 30 µM; AC50 (Mu-type opioid receptor): > 30 µM
